Data as given in US20120190703A1, “SALTS OF 13A-(S)DESOXYTYLOPHORININE, PREPARATION METHODS AND PHARMACEUTICAL COMPOSITIONS AND USES THEREOF” (priority 2009, published 2012).
Several values for one entry are separate records, joined by “and”; a condition that tells them apart may be missing. Equal entries are not always repeated. Where two headings read alike, the source gives them in different places. Marks after values point to notes of the source that are not given here.

Columns and labels:
[1] = Drug distribution in brain tissue after oral administration in mice; type: in vivo, ICR mice; conditions: for Brain contents of (+)-13a-(S)-deoxytylophorinine (ng/ml), Mean ± SD / Brain contents of (+)-13a-(S)-deoxytylophorinine (ng/ml), individual animals 1-3: 6 mg/kg oral
Method: (§1) Male ICR mice. Body weight 18˜22 g.
Plasma was isolated by centrifugalization. […] 25% tissue homogenate was prepared with normal saline addition.
The drug concentration-time data in brain tissue after administered orally of (+)-13a-(S)-deoxytylophorinine tartrate, maleate and citrate were represented in Table 8˜10 and FIG. 6˜8. […] (+)-13a-(S)-deoxytylophorinine could be detected in 5 min. The peak concentration was reached after 15 min, and the compound still can be detected after 2 h after administration.

H22 tumor-bearing mice = conditions: intragastric once daily
Excerpt: To determine the pharmacodynamic characters of 13a-(S)-deoxytylophorinine and its salts, the impact of these compounds to the tumor growth in H22 tumor-bearing mice was surveyed.
Male Kunming mice were obtained from the Laboratory Animal Center, Academy of Military Medical Science. Body weight 18˜22 g. 6 animals per group, totally 10 groups, 60 animals.
(+)-13a-(S)-deoxytylophorinine, (+)-13a-(S)-deoxytylophorinine Tartrate, (+)-13a-(S)-deoxytylophorinine Maleate, (+)-13a-(S)-deoxytylophorinine Citrate, Cytoxane (CTX) as positive control.
(+)-13a-(S)-deoxytylophorinine was administered at high dose (5 mg/kg) and low dose (2.5 mg/kg). Three (+)-13a-(S)-deoxytylophorinine salts were administered at high dose and low dose as equal moles with their prototype (Tartrate: 7.05 mg/kg, 3.53 mg/kg; Malate: 6.60 mg/kg, 3.30 mg/kg; Citrate: 7.90 mg/kg, 3.95 mg/kg).
Animals were reared in SPF grade circumstance to be observed for 24 h. The tumor cells liquid which resuscitated in abdominal cavity of KM mice was diluted with aseptic normal saline at 1:3 ratio. The resulting liquid was inoculated subcutaneously at forelimb with 0.2 mL every animal. After the injection over, the animals were divided to […] with 6 animals per group.
Four experimental samples were intragastric administered once daily 24 h after inoculation. The positive control CTX was intraperitoneal injected once daily. The animal body weight was recorded every day.

Solubility in water = type: physicochemical
[2] = Plasma pharmacokinetics after oral administration in mice
Method: To determine the pharmacokinetic characters of 13a-(S)-deoxytylophorinine and its salts, the studies about plasma pharmacokinetics and the character of distribution in brain were pursued.
as §1
(+)-13a-(S)-deoxytylophorinine Tartrate, (+)-13a-(S)-deoxytylophorinine Maleate, (+)-13a-(S)-deoxytylophorinine Citrate. All were dissolved in distilled water as 0.6 mg/ml solution before experiment progressed.
72 mice were divided to 3 groups with 24 animals per group, fasting for 16 h and drinking water freely. […] Plasma was isolated by centrifugalization. After the salts were administered orally, the brain tissues of mice were collected at 5 min, 15 min, 2 h time points. 25% tissue homogenate was prepared with normal saline addition. 200 μL of homogenate and plasma were added isovolumic MeCN to precipitate protein. 5 μL of clear supernatant was analyzed by LC/MS/MS.
(+)-13a-(S)-deoxytylophorinine was dissolved in DMSO and then diluted with MeOH with concentration 10, 50, 100, 500, 1000 and 2500 ng/ml respectively. 10 μl of standard solutions of (+)-13a-(S)-deoxytylophorinine with different concentration above were added to 200 μl of blank plasma sequently to adjust the concentration to 0.5, 2.5, 5, 25, 50, 125 ng/ml respectively. MeCN was added to the solution to precipitate protein, and 5 μl of result clear supernatant was analyzed with LC/MS/MS. Linear regression was ran with the peak area of (+)-13a-(S)-deoxytylophorinine as ordinate and the concentrations as abscissa.

[3] = high dose × 7 d, equal moles: prototype 5.0, tartrate 7.05, maleate 6.60, citrate 7.90 mg/kg
[4] = low dose × 7 d, equal moles: prototype 2.5, tartrate 3.53, maleate 3.30, citrate 3.95 mg/kg
[5] = 6 mg/kg oral, mice, Time (min) 3
[6] = 6 mg/kg oral, mice, Time (min) 6
[7] = male, ICR, mouse, plasma, po, 6 mg/kg

Compound: COc1ccc2c3c(c4cc(OC)c(OC)cc4c2c1)CN1CCC[C@H]1C3.O=C(O)C(O)C(O)C(=O)O [Tartrate, (+)-13a-(S)-deoxytylophorinine Tartrate]
- Brain contents of (+)-13a-(S)-deoxytylophorinine (ng/ml), Mean ± SD ([1]; Time (min) 5): 48.0 ± 21.6 ng/mL
- Brain contents of (+)-13a-(S)-deoxytylophorinine (ng/ml), individual animals 1-3 ([1]; Time (min) 5): 32.4 ng/mL and 38.8 ng/mL and 72.7 ng/mL
- Brain contents of (+)-13a-(S)-deoxytylophorinine (ng/ml), Mean ± SD ([1]; Time (min) 15): 262.9 ± 11.9 ng/mL
- Brain contents of (+)-13a-(S)-deoxytylophorinine (ng/ml), individual animals 1-3 ([1]; Time (min) 15): 249.3 ng/mL and 271.0 ng/mL and 268.5 ng/mL
- Brain contents of (+)-13a-(S)-deoxytylophorinine (ng/ml), Mean ± SD ([1]; Time (min) 120): 45.7 ± 33.0 ng/mL
- Brain contents of (+)-13a-(S)-deoxytylophorinine (ng/ml), individual animals 1-3 ([1]; Time (min) 120): 24.7 ng/mL and 28.7 ng/mL and 83.7 ng/mL
- Drug contents in brain compared with prototype ([1]; oral, 3 time points): higher than their prototype
- Animal No. (Initial/Final) (H22 tumor-bearing mice; [3]): 6/6
- Body Weight(g) Final (H22 tumor-bearing mice; [3]): 13.55 ± 1.87 g
- Body Weight(g) Initial (H22 tumor-bearing mice; [3]): 22.00 ± 1.55 g⁻¹
- Inhibition (%) (H22 tumor-bearing mice; [3]): 80.35** %
- Tumor Weight (g, mean ± SD) (H22 tumor-bearing mice; [3]): 0.23 ± 0.15 g
- Animal No. (Initial/Final) (H22 tumor-bearing mice; [4]): 6/6
- Body Weight(g) Final (H22 tumor-bearing mice; [4]): 19.76 ± 2.34 g
- Body Weight(g) Initial (H22 tumor-bearing mice; [4]): 21.50 ± 0.84 g⁻¹
- Inhibition (%) (H22 tumor-bearing mice; [4]): 31.88%
- Tumor Weight (g, mean ± SD) (H22 tumor-bearing mice; [4]): 0.78 ± 0.48 g
- Solubility in water (words) (Solubility in water): soluble in water
- solubility (Solubility in water; water): 39 mg/mL
- Peak concentration in blood ([2]; 6 mg/kg oral, mice): 34.2 ± 3.1 ng/mL
- Time of peak concentration in blood ([2]; 6 mg/kg oral, mice): 15 min
- t½z ([2]; 6 mg/kg oral, mice, plasma, non-compartment model): 0.88 h
- Blood concentration of (+)-13a-(S)-deoxytylophorinine (ng/ml), individual animals 1-3 ([2]; 6 mg/kg oral, mice, Time (min) 0.08): 18.4 ng/mL and 11.7 ng/mL and 42.0 ng/mL
- Blood concentration of (+)-13a-(S)-deoxytylophorinine (ng/ml), individual animals 1-3 ([2]; 6 mg/kg oral, mice, Time (min) 0.25): 30.6 ng/mL and 36.1 ng/mL and 35.7 ng/mL
- Blood concentration of (+)-13a-(S)-deoxytylophorinine (ng/ml), individual animals 1-3 ([2]; 6 mg/kg oral, mice, Time (min) 0.5): 16.5 ng/mL and 9.0 ng/mL and 7.8 ng/mL
- Blood concentration of (+)-13a-(S)-deoxytylophorinine (ng/ml), individual animals 1-3 ([2]; 6 mg/kg oral, mice, Time (min) 1): 6.2 ng/mL and 10.0 ng/mL
- Blood concentration of (+)-13a-(S)-deoxytylophorinine (ng/ml), individual animals 1-3 ([2]; 6 mg/kg oral, mice, Time (min) 2): 2.5 ng/mL and 12.4 ng/mL and 8.7 ng/mL
- Blood concentration of (+)-13a-(S)-deoxytylophorinine (ng/ml), Mean ± SD [2, 5]: 4.5 ± 1.2 ng/mL
- Blood concentration of (+)-13a-(S)-deoxytylophorinine (ng/ml), individual animals 1-3 [2, 5]: 3.0 ng/mL and 5.0 ng/mL and 5.3 ng/mL
- Blood concentration of (+)-13a-(S)-deoxytylophorinine (ng/ml), individual animals 1-3 ([2]; 6 mg/kg oral, mice, Time (min) 4): 3.3 ng/mL and 4.2 ng/mL and 1.1 ng/mL
- Blood concentration of (+)-13a-(S)-deoxytylophorinine (ng/ml), Mean ± SD [2, 6]: 0.4 ± 0.4 ng/mL
- Blood concentration of (+)-13a-(S)-deoxytylophorinine (ng/ml), individual animals 1-3 [2, 6]: 0.0 ng/mL and 0.2 ng/mL and 0.8 ng/mL
- concentration at 5 min ([2]; male, ICR, mouse, plasma, oral, 6 mg/kg, Blood concentration of (+)-13a-(S)-deoxytylophorinine (ng/ml), Mean ± SD, 6 mg/kg oral, mice, Time (min) 0.08): 24 ± 15.9 ng/mL
- concentration at 15 min ([2]; male, ICR, mouse, plasma, oral, 6 mg/kg, Blood concentration of (+)-13a-(S)-deoxytylophorinine (ng/ml), Mean ± SD, 6 mg/kg oral, mice, Time (min) 0.25): 34.2 ± 3.1 ng/mL
- concentration at 0.5 h ([2]; male, ICR, mouse, plasma, oral, 6 mg/kg, Blood concentration of (+)-13a-(S)-deoxytylophorinine (ng/ml), Mean ± SD, 6 mg/kg oral, mice, Time (min) 0.5): 11.1 ± 4.7 ng/mL
- concentration at 1 h ([2]; male, ICR, mouse, plasma, oral, 6 mg/kg, Blood concentration of (+)-13a-(S)-deoxytylophorinine (ng/ml), Mean ± SD, 6 mg/kg oral, mice, Time (min) 1): 8.1 ± 2.7 ng/mL
- concentration at 2 h ([2]; male, ICR, mouse, plasma, oral, 6 mg/kg, Blood concentration of (+)-13a-(S)-deoxytylophorinine (ng/ml), Mean ± SD, 6 mg/kg oral, mice, Time (min) 2): 7.9 ± 5 ng/mL
- concentration at 4 h ([2]; male, ICR, mouse, plasma, oral, 6 mg/kg, Blood concentration of (+)-13a-(S)-deoxytylophorinine (ng/ml), Mean ± SD, 6 mg/kg oral, mice, Time (min) 4): 2.8 ± 1.6 ng/mL
- AUC(0-inf) [2, 7]: 37.9 ng·h/mL
- AUC(0-t) [2, 7]: 37.4 ng·h/mL
- Cmax [2, 7]: 34.2 ng/mL
- MRT inf [2, 7]: 1.63 h
- MRT last [2, 7]: 1.57 h
- Tmax [2, 7]: 0.25 h
